The source of these data is US12180192B2, “Modulators of THR-β and methods of use thereof” (ALIGOS THERAPEUTICS, INC., priority 2019, dated 2024).

Broadly, the EC50 is the concentration at which the effect is half-maximal. One may read the Emax as the size of the effect at its maximum, as opposed to the concentration needed.

In assay [1] the target is T1, human thyroid receptor beta ligand-binding domain (LBD) (Homo sapiens, UniProt P10828).
T1 construct: purchased Invitrogen
T1 sequence (P10828 217-461 limits assumed): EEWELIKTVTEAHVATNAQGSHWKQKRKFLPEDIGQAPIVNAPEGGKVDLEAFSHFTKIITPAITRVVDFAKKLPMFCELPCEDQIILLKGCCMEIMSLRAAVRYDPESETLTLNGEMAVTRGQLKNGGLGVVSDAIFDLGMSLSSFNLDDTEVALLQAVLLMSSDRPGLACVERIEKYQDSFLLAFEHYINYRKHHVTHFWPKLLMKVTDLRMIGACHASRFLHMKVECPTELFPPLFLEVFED
In words: TR-FRET thyroid receptor beta coactivator assay (THR biochemical assay, Assay 1). Particulars: for EC50: THR-beta, TR-FRET coactivator assay, read-out: Activity category Assay 1 (EC50, THR-beta agonist); for Emax: read-out: Activity category Assay 1 THRβ (Emax). The method, boiled down:
(§1)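 GST-tagged human TRβ or TRα LBD, 1 nM final (stated for β), with fluorescein-SRC2-2 coactivator peptide (200 nM) and Tb-anti-GST antibody (2 nM). Agonists serially diluted, 1% DMSO final. 1 h incubation at rt in the dark; TR-FRET read as rise in fluorescein and drop in terbium emission.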
In general terms: In TR-FRET formats the signal depends on donor and acceptor labels being close together.

Assay [2] addresses T2, human thyroid receptor alpha ligand-binding domain (LBD) (Homo sapiens, UniProt P10827).
T2 construct: purchased Invitrogen
The experiment in a line: TR-FRET thyroid receptor alpha coactivator assay (THR biochemical assay, Assay 1). Particulars: for EC50: Table 4, THR-alpha, read-out: Activity category Assay 1 (EC50, THR-alpha agonist activity); for Emax: read-out: Activity category Assay 1 THRα (Emax). The method, boiled down:
as §1

Structures are written as SMILES.

T2 sequence (P10827 163-410 isoform P10827-2 limits assumed, other chains not shown): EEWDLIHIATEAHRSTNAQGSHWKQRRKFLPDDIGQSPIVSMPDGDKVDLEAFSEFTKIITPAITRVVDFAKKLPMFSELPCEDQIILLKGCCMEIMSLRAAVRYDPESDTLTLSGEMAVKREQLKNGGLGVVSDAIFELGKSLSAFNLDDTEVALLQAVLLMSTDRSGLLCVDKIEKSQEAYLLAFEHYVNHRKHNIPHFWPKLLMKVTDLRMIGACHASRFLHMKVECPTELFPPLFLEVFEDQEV

With `CC(C)c1cc(Oc2c(Cl)cc(-c3nn(C)c(=O)[nH]c3=O)cc2Cl)n[nH]c1=O` [Compound 16, 6-[3,5-dichloro-4-[(5-isopropyl-6-oxo-1H-pyridazin-3-yl)oxy]phenyl]-2-methyl-4H-1,2,4-triazine-3,5-dione], the concentration giving a half-maximal response (EC50) fell in the range of 50 to 250 nM in assay [1] and 250 to 1000 nM in assay [2]. Moreover, the Emax in assay [1] (Table 5, Assay 1, THRβ) is 50 to 75%; in assay [2] (Table 5, THRα), less than 50%.

Consider `Cc1cc(-n2nc(C#N)c(=O)[nH]c2=O)cc(C)c1Cc1ccc2[nH]c(=O)cc(C(C)C)c2c1` [Compound 90, 2-(4-((4-Isopropyl-2-oxo-1,2-dihydroquinolin-6-yl)methyl)-3,5-dimethylphenyl)-3,5-dioxo-2,3,4,5-tetrahydro-1,2,4-triazine-6-carbonitrile], for which the results for the EC50 in assay [1] and in assay [2] were less than 50 nM and 50 to 250 nM, respectively. For the same molecule, the Emax is less than 50% in assay [1] (Table 5, Assay 1, THRβ) and less than 50% in assay [2] (Table 5, THRα).

On to `Nc1nn(-c2cc(Cl)c(Oc3cc(C4CC5(CC5)C4)c(=O)[nH]n3)c(Cl)c2)c(=O)[nH]c1=O` [Compound 93], for which the EC50 in assay [1] was in the range of 50 to 250 nM; in assay [2], 250 to 1000 nM. The Emax in assay [1] (Table 5, Assay 1, THRβ) is less than 50%; in assay [2] (Table 5, THRα), less than 50%.

On to `Cc1cc(-n2nc(C#N)c(=O)[nH]c2=O)cc(C)c1Cc1ccc2c(c1)C1(CC1)C(=O)N2` [Compound 148, 2-(3,5-dimethyl-4-((2′-oxospiro[cyclopropane-1,3′-indolin]-5′-yl)methyl)phenyl)-3,5-dioxo-2,3,4,5-tetrahydro-1,2,4-triazine-6-carbonitrile], for which the EC50 in assay [1] and in assay [2] was less than 50 nM throughout. Also, the Emax was less than 50% in assay [1] (Table 5, Assay 1, THRβ) and 50 to 75% in assay [2] (Table 5, THRα).

Take `Nc1nn(-c2cc(Cl)c(Oc3n[nH]c(=O)cc3-c3ccc4c(c3)CCCO4)c(Cl)c2)c(=O)[nH]c1=O` [Compound 115]: the results for the EC50 in assay [1] and in assay [2] were 50 to 250 nM and more than 25000 nM, respectively. The Emax in assay [1] (Table 5, Assay 1, THRβ) is less than 50%; in assay [2] (Table 5, THRα) it was less than 50%.

In the case of `Cc1cccc(-c2cc(Oc3c(Cl)cc(-n4nc(N)c(=O)[nH]c4=O)cc3Cl)n[nH]c2=O)c1` [Compound 70, 6-Amino-2-(3,5-dichloro-4-((6-oxo-5-(m-tolyl)-1,6-dihydropyridazin-3-yl)oxy)phenyl)-1,2,4-triazine-3,5(2H,4H)-dione], the EC50 is less than 50 nM in assay [1] and 50 to 250 nM in assay [2]. For the same molecule, the Emax in assay [1] (Table 5, Assay 1, THRβ) was less than 50%; in assay [2] (Table 5, THRα), less than 50%.

In the case of `Nc1nn(-c2cc(Cl)c(Oc3cc(-c4ccc5c(c4)CCCC5)c(=O)[nH]n3)c(Cl)c2)c(=O)[nH]c1=O` [Compound 72, 6-Amino-2-(3,5-dichloro-4-((6-oxo-5-(5,6,7,8-tetrahydro-naphthalen-2-yl)-1,6-dihydro-pyridazin-3-yl)oxy)phenyl)-1,2,4-triazine-3,5(2H,4H)-dione], the EC50 in assay [1] was 50 to 250 nM; in assay [2], more than 25000 nM. The Emax was less than 50% in assay [1] (Table 5, Assay 1, THRβ) and less than 50% in assay [2] (Table 5, THRα).

Take `Nc1nn(-c2cc(Cl)c(Oc3cc(C45CCC(C4)C5)c(=O)[nH]n3)c(Cl)c2)c(=O)[nH]c1=O` [Compound 101]: the figures for the concentration giving a half-maximal response (EC50) in assay [1] and in assay [2] were 50 to 250 nM and 250 to 1000 nM, respectively. The Emax in assay [1] (Table 5, Assay 1, THRβ) is less than 50%; in assay [2] (Table 5, THRα) it was less than 50%.

Take `Nc1nn(-c2cc(Cl)c(Oc3cc(-c4ccc5ccccc5c4)c(=O)[nH]n3)c(Cl)c2)c(=O)[nH]c1=O` [Compound 67, 6-amino-2-(3,5-dichloro-4-[[5-(naphthalen-2-yl)-6-oxo-1H-pyridazin-3-yl]oxy]phenyl)-4H-1,2,4-triazine-3,5-dione]: the results for the EC50 in assay [1] and in assay [2] were 50 to 250 nM and 1000 to 25000 nM, respectively. The Emax in assay [1] (Table 5, Assay 1, THRβ) was less than 50%; in assay [2] (Table 5, THRα) it was less than 50%.

For `Nc1nn(-c2cc(Cl)c(Oc3ccc4c(c3)C3(CCCC3)C(=O)N4)c(Cl)c2)c(=O)[nH]c1=O` [Compound 83], the EC50 in assay [1] and in assay [2] was less than 50 nM in each case. Further, the maximal response (Emax) fell in the range of 50 to 75% in assay [1] (Table 5, Assay 1, THRβ) and 50 to 75% in assay [2] (Table 5, THRα).

Take `Nc1nn(-c2cc(Cl)c(Oc3cc(C4Cc5ccccc54)c(=O)[nH]n3)c(Cl)c2)c(=O)[nH]c1=O` (centres unmarked) [Compound 158]: the EC50 is less than 50 nM in assay [1] and 250 to 1000 nM in assay [2]. Besides, the Emax in assay [1] (Table 5, Assay 1, THRβ) is less than 50%; in assay [2] (Table 5, THRα) it was less than 50%.

In the case of `CC(c1cc(Oc2c(Cl)cc(-n3nc(N)c(=O)[nH]c3=O)cc2Cl)n[nH]c1=O)C1CC(F)(F)C1` (single isomer, unassigned) [Compound 61-B, 6-amino-2-[3,5-dichloro-4-([5-[1-(3,3-difluorocyclobutyl)ethyl]-6-oxo-1H-pyridazin-3-yl]oxy)phenyl]-4H-1,2,4-tri-azine-3,5-dione], the half-maximal effective concentration (EC50) was 50 to 250 nM in assay [1] and 1000 to 25000 nM in assay [2]. In addition, the “Activity category Assay 1 THRβ (Emax)” value in assay [1] (Table 5, Assay 1, THRβ) is listed as “C (Emax<50%)”. The “Activity category Assay 1 THRα (Emax)” value in assay [2] (Table 5, THRα) is listed as “C (Emax<50%)”.

`CC(C)c1c[nH]c2nnc(Oc3c(Cl)cc(-n4nc(C#N)c(=O)[nH]c4=O)cc3Cl)cc12` [Compound 52, 2-[3,5-dichloro-4-([5-isopropyl-7H-pyrrolo[2,3-c]pyridazin-3-yl]oxy)phenyl]-3,5-dioxo-4H-1,2,4-triazine-6-carbonitrile]: the EC50 lay within 50 to 250 nM in assay [1] and 1000 to 25000 nM in assay [2]. Besides, the Emax in assay [1] (Table 5, Assay 1, THRβ) was less than 50%; in assay [2] (Table 5, THRα), less than 50%.

Consider `CC1(C)CC(c2cc(Oc3c(Cl)cc(-n4nc(N)c(=O)[nH]c4=O)cc3Cl)n[nH]c2=O)C1` [Compound 89, 6-Amino-2-(3,5-dichloro-4-((5-(3,3-dimethylcyclobutyl)-6-oxo-1,6-dihydropyridazin-3-yl)oxy)phenyl)-1,2,4-triazine-3,5(2H,4H)-dione], for which the concentration giving a half-maximal response (EC50) in assay [1] is less than 50 nM; in assay [2], 250 to 1000 nM. Also, the Emax in assay [1] (Table 5, Assay 1, THRβ) is less than 50%; in assay [2] (Table 5, THRα), less than 50%.
